Patent US20250206707A1, “NOVEL COMPOUND INDUCING EXPRESSION OF ANTI-AGING GENE KLOTHO” (KLOTHO SCIENCES CO., LTD., priority 2022, published 2025)

Assays:
[1] = system: intracellular reactive oxygen species (ROS) in renal tubule epithelial cells (RPTECs); assay: Analysis of intracellular reactive oxygen species (ROS) in RPTECs; assay type: cell-based, human; settings: RPTEC cells, 2.5 µM compound, 6 h; FIG. 4
Protocol: Renal tubule epithelial cells (RPTECs) were treated with each KS compound of Example 1 to determine the changes in the amount of intracellular reactive oxygen species (ROS).
RPTEC cells in culture were incubated with 2.5 µM of each KS compound for 6 h. The amount of ROS present in the cells was measured by adding Reactive Oxygen Detection Reagents (Invitrogen) and incubating for 1 h. The change in fluorescence was measured using a spectrophotometer.
FIG. 4 is a graph showing the amount of ROS remaining in RPTEC cells. It was confirmed that the amount of ROS in the cells treated with KS103 and KS104 compounds was reduced by about 30% compared to the cells treated with solvent (DMSO) alone.

[2] = system: human retinal pigment epithelial cells (ARPE); assay: Protective effect on retinal pigment epithelial cells against oxidative stress; assay type: cell-based; settings: 2.5 μM compound, BSO 50 mM for 6 hours, Cyto X absorbance 450 nm, FIG. 7
Protocol: To determine the preventive or therapeutic effect of each KS compound of Example 1 on macular degeneration, the protection of retinal pigment epithelial cells against oxidative stress was determined.
First, human retinal pigment epithelial cells were tested using retinal pigment epithelial cells (ARPE) purchased from ATCC, USA. Equal numbers of 10,000 ARPE cells were added to each well, and after 18 hours of incubation, the cells were replaced with DMEM F-12 medium without serum (FBS).
Each KS compound was added at a concentration of 2.5 μM, and the cells were treated with buthionine sulfoximine (BSO) at a concentration of 50 mM for 6 hours to induce oxidative stress. To measure the viability of these cells, Cyto X (Cell viability assay kit) was added and the time-varying absorbance was measured at 450 nm.

[3] = Stability evaluation with human liver microsomes (MS/MS analysis); assay type: in vitro ADME; settings: human microsomes 0.5 mg/ml, 1 μM compound, 30 min, 37° C., with NADPH; tolbutamide as control; FIG. 1
Protocol: Each KS compound in Example 1 was dissolved in 10 mM DMSO, and tolbutamide, used as a standard, was dissolved in methanol at a concentration of 10 mM.
In a glass test tube (13×100 mm), 0.1 M KH2PO4 (147.5 μl), 0.1 M MgCl2 (25 μl), and 50 μl of human […] microsomes (mixed-gender pool) at a concentration of 0.5 mg/ml purchased from Corning Life Science and each KS compound solution were mixed to a final 1 μM of each KS compound solution, pre-incubated for 3 min in a shaking water bath (37° C., 40 rpm), and then incubated for 30 min in the presence or absence of 10 mM NADPH, 25 μL.
Aliquots of 50 μl were taken before the reaction and after the reaction, and then the reaction was stopped by adding […] of acetonitrile and vortexed for 1 min. The mixture was centrifuged (4,000 rpm, 4° C.) for 20 minutes, and each supernatant was transferred to a new glass test tube and dried for 2 hours using a centrifugal concentrator. After ensuring complete drying, 200 μl of 40% acetonitrile was added to each glass test tube and resuspended by vortexing for 1 minute. The resuspension solution was centrifuged for 10 minutes (4,000 rpm, 4° C.) and 150 μl of the supernatant was taken for HPLC-UV analysis. The Agilent 1200 series was used for HPLC-UV analysis and the Agilent 6410 was used for MS/MS analysis. The conditions used for the analysis were as follows: […]

klotho gene = assay: Klotho gene mRNA expression by PCR in RPTECs; assay type: cell-based, human; settings: 6 hours exposure, FIG. 2
Protocol: Human renal tubular epithelial cells (RPTECs) were treated with each KS compound of Example 1 at different concentrations, and mRNA was collected from the cells 6 hours later, and the mRNA expression of the klotho gene was confirmed by PCR. Renal Proximal Tubular Epithelial Cells (RPTECs) were purchased from Lonza and cultured at 37° C., 5% CO2 and used in the experiments. Each KS compound was added to the medium of the cells and after 6 hours of exposure, RNA was isolated from the cells and converted to cDNA using reverse transcriptase and amplified by PCR method to determine the expression level. As a control, DMSO was added instead of the compound.
The primers used in the experiment are listed below.
The expression levels of the bands in the gel photographs were quantified using Image J and plotted on a graph. In the gel picture, the upper band represents the secreted form of klotho, and the lower band represents the membrane form of klotho.

[4] = system: Human retinal epithelial cells (ARPE); assay: Cytotoxicity evaluation (EX-cytox absorbance); assay type: cell-based; settings: different concentrations, 24 hours incubation, EX-cytox 1 hour, FIG. 3
Protocol: Human retinal epithelial cells (ARPE) in culture were treated with KS compounds of Example 1 at different concentrations and incubated for 24 hours, followed by a 1-hour reaction with EX-cytox from GOGEN, and the change in absorbance was measured.

[5] = system: TXN, AKT1, NR4A3, NLRP3, FOXP3 genes; assay: Expression changes in oxidative stress-related genes (NGS) in aged RPTEC cells; assay type: cell-based, human; settings: 7th passage RPTEC, 2.5 μM, 6 hours, compared with 4-passage RPTEC, FIG. 5, FIG. 6
Protocol: 2.5 μM of each KS compound of Example 1 was added to relatively aged 7th passage (#7) renal tubular epithelial cells (RPTEC) cells, cultured for 6 hours, mRNA was collected, and total gene expression was analyzed using a next generation sequencer (NGS). To confirm changes in gene expression due to aging, through gene expression comparison with relatively young 4-passage (#4) RPTEC cells, genes with increased expression in young cells (TXN, AKT1, NR4A3, NLRP3, FOXP3 genes) were confirmed. The expression levels of these genes in young cells were compared to the expression change values caused by treatment with the compounds of Example 1 (senescent cells were treated with the compounds of Example 1, respectively).

microsomal stability [3]	Structure (SMILES)	reduction of the amount of ROS in the cells compared to cells treated with solvent (DMSO) alone [1]	protection against oxidative stress-induced cell death [2]	ability to express the klotho gene compared to KS101 as well as other fluorine-bound compounds (klotho gene)	expression effect on the klotho gene (mRNA, sum of secreted and membrane form bands) (klotho gene; different concentrations, Image J quantification)	cytotoxicity [4]	expression of oxidative stress-related genes in aged cells versus young cells [5]
–	Fc1ccc2nc(Nc3ccc(F)c(F)c3)oc2c1 [KS103, N-(3,4-difluorophenyl)-6-fluorobenzo[d]oxazol-2-amine]	about 30%	inhibited oxidative stress-induced cell death	–	–	–	–
best microsomal stability	Fc1ccc(Nc2nc3cc(F)c(F)cc3o2)cc1F [KS104, N-(3,4-difluorophenyl)-5,6-difluorobenzo[d]oxazol-2-amine]	about 30%	inhibited oxidative stress-induced cell death	more than doubled	best expression effect	lowest cytotoxicity	induced to a greater extent than in young cells
